Where “and” joins values, the source holds several entries; their conditions need not be identical. Equal values may be shown once. Entries after “also recorded” stand apart in the source; their conditions may differ. Read-outs that look alike come from different tables or passages of the source.
Experiments:
[1] = tested on: human primary glioblastoma cell line U251; assay: MTT cell viability assay, U251; type: cell-based; conditions: for IC50: Homo sapiens, read-out: Antiproliferative Effect IC50 U251
[2] = tested on: human tongue squamous cell carcinoma cell line Cal27; assay: MTT cell viability assay, Cal27; type: cell-based; conditions: for IC50: Homo sapiens, read-out: Antiproliferative Effect IC50 Cal27
[3] = tested on: human primary glioblastoma cell line U87; assay: MTT cell viability assay, U87; type: cell-based; conditions: 72 h, read-out: Antiproliferative Effect IC50 U87
HDAC6 [4] = target: T1, HDAC6 (Homo sapiens, UniProt Q9UBN7); assay: In-vitro human HDAC6 fluorogenic inhibition assay (ZMAL substrate); type: biochemical
T1 sequence (Q9UBN7 1-1215): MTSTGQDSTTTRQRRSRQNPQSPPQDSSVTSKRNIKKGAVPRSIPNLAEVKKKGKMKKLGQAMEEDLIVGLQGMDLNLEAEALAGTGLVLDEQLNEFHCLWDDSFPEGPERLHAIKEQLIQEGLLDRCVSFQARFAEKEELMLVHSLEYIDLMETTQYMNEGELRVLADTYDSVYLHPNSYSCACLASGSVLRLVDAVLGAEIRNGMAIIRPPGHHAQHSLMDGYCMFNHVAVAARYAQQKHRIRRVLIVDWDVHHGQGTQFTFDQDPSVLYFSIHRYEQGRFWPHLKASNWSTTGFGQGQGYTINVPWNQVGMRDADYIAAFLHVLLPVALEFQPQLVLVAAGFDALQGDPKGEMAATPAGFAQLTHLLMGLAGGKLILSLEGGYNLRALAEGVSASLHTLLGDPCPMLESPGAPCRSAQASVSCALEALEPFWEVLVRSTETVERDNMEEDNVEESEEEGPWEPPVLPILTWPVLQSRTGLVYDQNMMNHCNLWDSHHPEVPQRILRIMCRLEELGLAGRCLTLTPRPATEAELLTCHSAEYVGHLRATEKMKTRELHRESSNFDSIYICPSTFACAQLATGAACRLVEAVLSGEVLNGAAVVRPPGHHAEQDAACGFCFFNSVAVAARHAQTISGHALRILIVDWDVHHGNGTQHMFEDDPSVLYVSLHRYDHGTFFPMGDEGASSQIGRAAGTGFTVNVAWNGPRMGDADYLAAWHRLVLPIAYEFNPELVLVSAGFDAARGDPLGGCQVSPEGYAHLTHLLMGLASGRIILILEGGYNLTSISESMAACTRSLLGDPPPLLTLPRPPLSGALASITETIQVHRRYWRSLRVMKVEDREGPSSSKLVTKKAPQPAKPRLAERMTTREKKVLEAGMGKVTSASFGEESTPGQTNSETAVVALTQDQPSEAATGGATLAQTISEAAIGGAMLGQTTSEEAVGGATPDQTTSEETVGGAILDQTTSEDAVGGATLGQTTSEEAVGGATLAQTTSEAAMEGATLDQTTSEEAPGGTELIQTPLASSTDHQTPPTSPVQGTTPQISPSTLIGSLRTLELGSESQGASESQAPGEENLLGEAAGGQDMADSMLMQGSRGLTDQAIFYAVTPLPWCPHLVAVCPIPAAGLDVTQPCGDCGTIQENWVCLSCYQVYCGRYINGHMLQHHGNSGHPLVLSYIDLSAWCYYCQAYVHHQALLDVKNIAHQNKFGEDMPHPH

HDAC1 [5] = target: T2, HDAC1 (Homo sapiens, UniProt Q13547); assay: In-vitro human HDAC1 fluorogenic inhibition assay (ZMAL substrate); type: biochemical
[6] = tested on: γ-H2AX formation in Cal27 cells; assay: γ-H2AX expression DNA damage assay; type: cell-based, human
Cal27 cells = type: cell-based, human
human recombinant HDAC2 = human recombinant HDAC2 (Homo sapiens, UniProt Q92769); assay: In-vitro human HDAC2 fluorogenic inhibition assay (ZMAL substrate); type: biochemical
HDAC8 recombinant enzyme = target: T3, HDAC8 recombinant enzyme (Homo sapiens, UniProt Q9BY41); assay: In-vitro human HDAC8 assay (Boc-Lys-(TFa)-AMC substrate); type: biochemical
T3 sequence (Q9BY41 1-377): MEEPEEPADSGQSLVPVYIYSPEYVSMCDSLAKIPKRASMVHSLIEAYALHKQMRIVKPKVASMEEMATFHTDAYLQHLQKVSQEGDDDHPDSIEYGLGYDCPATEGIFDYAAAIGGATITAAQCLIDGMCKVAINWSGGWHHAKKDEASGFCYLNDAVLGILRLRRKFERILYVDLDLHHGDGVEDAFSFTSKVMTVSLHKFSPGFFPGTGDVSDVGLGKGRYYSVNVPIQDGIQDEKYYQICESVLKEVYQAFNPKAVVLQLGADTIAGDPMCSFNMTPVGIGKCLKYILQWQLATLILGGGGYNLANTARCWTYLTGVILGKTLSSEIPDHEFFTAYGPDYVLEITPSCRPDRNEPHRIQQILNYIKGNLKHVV

[7] = tested on: caspase 3/7 activation in Cal27 cells; type: cell-based, human
human recombinant HDAC3 = human recombinant HDAC3 (Homo sapiens, UniProt O15379); assay: In-vitro human HDAC3 fluorogenic inhibition assay (ZMAL substrate); type: biochemical
[8] = tested on: histone H3 acetylation (marker of reduced HDAC1-3 activity); assay: Immunoblot, acetyl histone H3 in HL60 cells; type: cell-based
HDAC6 [9] = target: T1, HDAC6; assay: Immunoblot, HDAC6 degradation in HL60 cells; type: cell-based; conditions: 0.1 μM, 1 μM and 10 μM, 48 hours
[10] = tested on: α-tubulin acetylation (marker of reduced HDAC6 activity); assay: Immunoblot, acetylated α-tubulin in HL60 cells; type: cell-based
HDAC1 [11] = target: T2, HDAC1; assay: Immunoblot, HDAC1 degradation in HL60 cells; type: cell-based; conditions: 0.1 μM, 1 μM and 10 μM, 48 hours
[12] = fluorogenic assay, n≥2, each in duplicate wells, read-out: Target Inhibition IC50 HDAC6
[13] = fluorogenic assay, n≥2, each in duplicate wells, read-out: Target Inhibition IC50 HDAC1
[14] = U-251, MTT assay, 72 h, n≥3, each in triplicate wells, n.e.: no effect up to 100 μM
[15] = CAL-27, MTT assay, 72 h, n≥3, each in triplicate wells
[16] = MTT assay, n≥3, each in triplicate wells
[17] = n≥2, each in duplicate wells, read-out: HDAC Inhibition IC50 HDAC 2
[18] = n≥2, each in duplicate wells, read-out: HDAC Inhibition IC50 HDAC 3

Chain of human recombinant HDAC2 (Q92769 whole entry): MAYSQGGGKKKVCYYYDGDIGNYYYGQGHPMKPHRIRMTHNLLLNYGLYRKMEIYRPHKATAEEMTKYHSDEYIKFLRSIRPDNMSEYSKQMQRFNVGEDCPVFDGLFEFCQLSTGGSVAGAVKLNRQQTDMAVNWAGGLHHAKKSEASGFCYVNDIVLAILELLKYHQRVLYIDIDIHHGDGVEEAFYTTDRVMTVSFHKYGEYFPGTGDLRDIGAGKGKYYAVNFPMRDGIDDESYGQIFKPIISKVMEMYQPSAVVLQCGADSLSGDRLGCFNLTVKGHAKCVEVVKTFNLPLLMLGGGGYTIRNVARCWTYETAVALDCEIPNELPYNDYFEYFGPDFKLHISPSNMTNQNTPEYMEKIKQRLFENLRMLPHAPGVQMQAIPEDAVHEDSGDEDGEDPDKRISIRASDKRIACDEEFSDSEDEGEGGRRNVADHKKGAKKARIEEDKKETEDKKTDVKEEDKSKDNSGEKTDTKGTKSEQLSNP
Chain of human recombinant HDAC3 (O15379 whole entry): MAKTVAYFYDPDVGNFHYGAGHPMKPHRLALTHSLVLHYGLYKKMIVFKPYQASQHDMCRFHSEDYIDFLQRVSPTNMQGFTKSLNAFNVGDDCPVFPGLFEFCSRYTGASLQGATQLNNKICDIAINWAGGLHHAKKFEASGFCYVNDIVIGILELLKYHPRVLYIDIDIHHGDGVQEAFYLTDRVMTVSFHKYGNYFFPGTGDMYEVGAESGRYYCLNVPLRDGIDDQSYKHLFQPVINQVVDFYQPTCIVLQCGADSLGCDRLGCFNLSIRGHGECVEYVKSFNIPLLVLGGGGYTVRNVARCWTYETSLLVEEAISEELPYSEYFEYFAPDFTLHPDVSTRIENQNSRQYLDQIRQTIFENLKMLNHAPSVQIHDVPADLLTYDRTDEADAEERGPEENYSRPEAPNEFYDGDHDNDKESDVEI
Chain of human recombinant HDAC3 (Q9Y618 395-489 partner limits assumed): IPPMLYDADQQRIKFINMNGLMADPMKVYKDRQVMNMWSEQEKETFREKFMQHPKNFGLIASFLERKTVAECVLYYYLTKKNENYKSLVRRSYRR
T2 sequence (Q13547 whole entry): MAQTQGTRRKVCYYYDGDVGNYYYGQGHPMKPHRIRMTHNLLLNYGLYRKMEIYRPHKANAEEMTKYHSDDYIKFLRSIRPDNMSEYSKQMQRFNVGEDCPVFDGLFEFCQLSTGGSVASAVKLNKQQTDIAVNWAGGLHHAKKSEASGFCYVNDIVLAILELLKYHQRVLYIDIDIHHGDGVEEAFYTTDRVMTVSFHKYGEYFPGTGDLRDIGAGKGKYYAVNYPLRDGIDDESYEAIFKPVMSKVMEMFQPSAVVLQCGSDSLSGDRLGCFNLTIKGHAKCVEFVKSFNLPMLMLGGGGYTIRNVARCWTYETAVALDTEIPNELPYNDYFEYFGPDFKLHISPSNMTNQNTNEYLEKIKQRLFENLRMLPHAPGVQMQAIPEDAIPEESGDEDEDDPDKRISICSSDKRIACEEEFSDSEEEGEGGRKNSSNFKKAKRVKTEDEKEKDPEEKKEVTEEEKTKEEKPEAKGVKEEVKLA

| IC50 (HDAC6 [4]; [12]) | IC50 (HDAC1 [5]; [13]) | IC50 [1, 14] | IC50 [2, 15] | IC50 [3, 16] | SMILES | IC50 ([1]; U-251, 72 h) | IC50 ([2]; CAL-27, 72 h) | IC50 [3] | IC50 (HDAC6 [4]) | IC50 (HDAC1 [5]) | other results |
| --- | --- | --- | --- | --- | --- | --- | --- | --- | --- | --- | --- |
| – | – | – | – | – | O=C(O)CCCc1ccc(N(CCCl)CCCl)cc1 [CAB, chlorambucil, reference compound] | 48.7 ± 11.9 µM | 23.7 ± 2.26 µM | 86.3 ± 17.5 µM | – | – | – |
| 0.023 ± 0.002 µM | 0.394 ± 0.02 µM | 44.5 ± 8.94 µM | 16.8 ± 3.62 µM | 147 ± 19.7 µM | O=C(NO)c1ccc(CNC(=O)c2ncn3c(=O)n(CCCl)nnc23)cc1 [Compound 3 b] | – | – | – | – | – | – |
| – | – | – | – | – | O=C(CCCc1ccc(N(CCCl)CCCl)cc1)NCc1ccc(C(=O)NO)cc1 [Compound 3 c] | 22 ± 3.09 µM | 6.89 ± 1.04 µM | 23.9 ± 3.41 µM | 0.032 ± 0.003 µM | 0.518 ± 0.065 µM | – |
| 4.99 ± 0.129 µM | 35.1 ± 5.32 µM | – | 97.1 ± 16.3 µM | 323 ± 107 µM | Cn1nnc2c(C(=O)NCCCC(=O)NO)ncn2c1=O [Compound 3 d] | – | – | – | – | – | Antiproliferative Effect IC50 U251 ([1]; MTT assay, 72 h, n≥3, each in triplicate wells, n.e.: no effect up to 100 μM): n.e. |
| 2.37 ± 0.086 µM | 16.2 ± 0.07 µM | 461 ± 89.9 µM | 87.8 ± 9.52 µM | 413 ± 77.7 µM | O=C(CCCNC(=O)c1ncn2c(=O)n(CCCl)nnc12)NO [Compound 3 e] | – | – | – | – | – | – |
| – | – | – | – | – | O=C(CCCNC(=O)CCCc1ccc(N(CCCl)CCCl)cc1)NO [Compound 3 f] | 20.1 ± 2.41 µM | 8.67 ± 1.31 µM | 46.1 ± 5.71 µM | 4.6 ± 0.082 µM | 8.21 ± 0.183 µM | – |
| 0.094 ± 0.002 µM | 0.681 ± 0.015 µM | 140 ± 17.8 µM | 29 ± 3.73 µM | 262 ± 75.6 µM | O=C(CCCCCNC(=O)c1ncn2c(=O)n(CCCl)nnc12)NO [Compound 3 g] | – | – | – | – | – | – |
| – | – | – | – | – | O=C(CCCCCNC(=O)CCCc1ccc(N(CCCl)CCCl)cc1)NO [Compound 3 h] | 25.1 ± 3.27 µM | 7.5 ± 0.62 µM | 43.9 ± 15.3 µM | 0.121 ± 0.008 µM | 0.444 ± 0.053 µM | – |
| 0.031 ± 0.002 µM | 0.161 ± 0.006 µM | 86.2 ± 13.1 µM | 10.2 ± 1.54 µM | 166 ± 33.6 µM | Cn1nnc2c(C(=O)NCCCCCCC(=O)NO)ncn2c1=O [Compound 3 i] | – | – | – | – | – | – |
| 0.038 ± 0.004 µM | 0.143 ± 0.005 µM | 48.2 ± 7.35 µM | 9.9 ± 1.24 µM | 122 ± 56 µM | O=C(CCCCCCNC(=O)c1ncn2c(=O)n(CCCl)nnc12)NO [Compound 3 j] | – | – | – | – | – | – |
| – | – | – | – | – | O=C(CCCCCCNC(=O)CCCc1ccc(N(CCCl)CCCl)cc1)NO [Compound 3 k] | 27 ± 3.55 µM | 6.17 ± 0.51 µM | 39.2 ± 7.16 µM | 0.063 ± 0.001 µM | 0.244 ± 0.041 µM | – |
| 0.072 ± 0.008 µM | 0.146 ± 0.008 µM | 97.8 ± 9.07 µM | 15.4 ± 1.61 µM | 141 ± 20.7 µM | Cn1nnc2c(C(=O)NCc3ccc(/C=C/C(=O)NO)cc3)ncn2c1=O [Compound 3 l] | – | – | – | – | – | γ-H2AX formation ([6]; Cal27 cells, IC50 (from MTT assay), 24 h): not different from control; γ-H2AX formation ([6]; Cal27 cells, fivefold IC50 (from MTT assay), 24 h): only weak DNA damage |
| – | – | – | – | – | O=C(/C=C/c1ccc(CNC(=O)CCCc2ccc(N(CCCl)CCCl)cc2)cc1)NO [Compound 3 n] | 14.5 ± 1.59 µM | 2.68 ± 0.31 µM | 19.8 ± 3.16 µM | 0.062 ± 0.001 µM | 0.151 ± 0.021 µM | induction of apoptosis (subG1 nuclei) (Cal27 cells): more potent than 3 o, cisplatin, vorinostat, and CAB in inducing apoptosis; IC50 (human recombinant HDAC2): 0.432 ± 0.015 µM; IC50 (HDAC8 recombinant enzyme): 4.04 ± 0.28 µM; caspase 3/7 activation [7]: significantly more effective than the sum of the effects of 3 o and CAB; also recorded: significantly stronger than the sum of the effects of even 100 μM CAB and 30 μM 3 o; combination index (CI) [7]: 0,92 and 0,69 and 0,70; IC50 (human recombinant HDAC3): 0.187 ± 0.009 µM; γ-H2AX formation [6]: significant increase in γ‐H2AX formation; also recorded: significantly more active than 3 l and 3 m; also recorded: significantly more effective than the sum of the effects of 3 o and CAB; also recorded: significantly greater DNA damage (γ‐H2AX assay) than 3 o; improved antiproliferative effect in comparison to parent compound CAB [2]: up to 10 fold |
| 0.066 ± 0.001 µM | 0.156 ± 0.008 µM | 23.9 ± 3.51 µM | 6.59 ± 0.44 µM | 27.7 ± 6.52 µM | O=C(/C=C/c1ccc(CNC(=O)CCCc2ccccc2)cc1)NO [Compound 3 o] | – | – | – | – | – | IC50 (human recombinant HDAC2; [17]): 0.194 ± 0.034 µM; IC50 (human recombinant HDAC3; [18]): 0.117 ± 0.02 µM |
| – | – | 84.5 ± 7.3 µM | 3.56 ± 0.29 µM | 57.4 ± 9.51 µM | NC(=O)c1ncn2c(=O)n(CCCl)nnc12 [MTZ, mitozolomide, reference compound] | – | – | – | – | – | – |
| 0.027 µM | 0.174 ± 0.009 µM | – | – | – | O=C(CCCCCCNC(=O)c1ccc(NC(=O)COCCOCCNC(=O)COc2cccc3c2C(=O)N(C2CCC(=O)NC2=O)C3=O)cc1)NO (stereo not shown) [PROTAC 4] | – | – | – | – | – | acetylation of histone H3 [8]: significant hyperacetylation; IC50 (human recombinant HDAC2; [17]): 0.248 ± 0.049 µM; IC50 (HDAC8 recombinant enzyme; read-out: HDAC Inhibition IC50 HDAC 8): 3.42 ± 0.32 µM; HDAC6 degradation (Western blot) (HDAC6 [9]): able to degrade especially HDAC6; acetylation of α-tubulin [10]: significant hyperacetylation; HDAC1 degradation (Western blot) (HDAC1 [11]): also HDAC1 in a concentration dependent manner; IC50 (human recombinant HDAC3; [18]): 0.159 ± 0.031 µM |
| – | – | 457 ± 57.3 µM | 56.8 ± 5.05 µM | 144 ± 15.6 µM | Cn1nnc2c(C(N)=O)ncn2c1=O [TMZ, temozolomide, reference compound] | – | – | – | – | – | – |
| – | – | – | – | – | Cn1c(CCCCCCC(=O)NO)nc2cc(N(CCCl)CCCl)ccc21 [tinostamustine, reference compound] | 10.2 ± 0.62 µM | 2.94 ± 0.07 µM | 8.32 ± 0.55 µM | 0.011 ± 0.001 µM | 0.047 ± 0.003 µM | – |
